Our source for the T/C values is PubChem BioAssay AID328 (DTP/NCI, 2004).

This experiment relates to BDF1 mice, P388 leukemia ip, median survival T/C. Put plainly: NCI In Vivo Anticancer Drug Screen. Data for tumor model P388 Leukemia (intraperitoneal) in B6D2F1 (BDF1) mice. The note with it: endpoint: median survival time, higher = longer survival. The gist of the method: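 In tumour-bearing mice, survival after compound treatment is set against the vehicle group and given as a quotient.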

Setting [1] is: dose: 50.0 mg/kg/injection, schedule: Q04DX003 (ip), vehicle: saline.
The mark [2] stands for this setting: dose: 100.0 mg/kg/injection, schedule: Q04DX003 (ip), vehicle: saline.
The mark [3] stands for this setting: dose: 200.0 mg/kg/injection, schedule: Q04DX003 (ip), vehicle: saline.
The mark [4] stands for this setting: dose: 50.0 mg/kg/injection, schedule: Q01DX009 (ip), vehicle: saline.
[5] abbreviates: dose: 100.0 mg/kg/injection, schedule: Q01DX009 (ip), vehicle: saline with Tween-80.
[6] abbreviates: dose: 200.0 mg/kg/injection, schedule: Q01DX009 (ip), vehicle: saline with Tween-80.
[7] abbreviates: dose: 400.0 mg/kg/injection, schedule: Q01DX009 (ip), vehicle: saline with Tween-80.
Setting [8] is: dose: 50.0 mg/kg/injection, schedule: Q01DX009 (ip), vehicle: saline with Tween-80.
Setting [9] is: dose: 25.0 mg/kg/injection, schedule: Q01DX009 (ip), vehicle: Klucel (hydroxypropylcellulose) (HPC).
Setting [10] is: dose: 50.0 mg/kg/injection, schedule: Q01DX009 (ip), vehicle: Klucel (hydroxypropylcellulose) (HPC).
Setting [11] is: dose: 50.0 mg/kg/injection, schedule: Q04DX003 (ip), vehicle: Klucel (hydroxypropylcellulose) (HPC).
Setting [12] is: dose: 100.0 mg/kg/injection, schedule: Q01DX009 (ip), vehicle: Klucel (hydroxypropylcellulose) (HPC).
Where [13] appears, read: dose: 100.0 mg/kg/injection, schedule: Q04DX003 (ip), vehicle: Klucel (hydroxypropylcellulose) (HPC).
The mark [14] stands for this setting: dose: 200.0 mg/kg/injection, schedule: Q04DX003 (ip), vehicle: Klucel (hydroxypropylcellulose) (HPC).
The mark [15] stands for this setting: dose: 100.0 mg/kg/injection, schedule: Q01DX009 (ip), vehicle: saline.

Several values for one entry are separate records, joined by “and”; a condition that tells them apart may be missing. Equal entries are not always repeated. Inconclusive results and toxic doses are left out. Residues, ends and D or L forms follow the SMILES beside them.

`CC(=O)/C=C/c1ccc2c(c1)OCO2`: the T/C by setting is: (dose: 25.0 mg/kg/injection, schedule: Q04DX003 (ip), vehicle: saline) 105 % of control; under setting [1], 103 % of control; under setting [2], 102 % of control and 114 % of control; under setting [3], 100 % of control and 108 % of control and 122 % of control; (dose: 300.0 mg/kg/injection, schedule: Q04DX003 (ip), vehicle: saline) 100 % of control and 103 % of control; (dose: 400.0 mg/kg/injection, schedule: Q04DX003 (ip), vehicle: saline) 91 % of control and 94 % of control. Moreover, for the setting “dose: 500.0 mg/kg/injection, schedule: Q04DX003 (ip), vehicle: saline”, the T/C was 106 % of control and 109 % of control.

Turning to `COC(=O)c1cc(-c2ccccc2)[nH]c1-c1ccccc1`, the T/C under setting [4] is 92 % of control.

For the compound `O=C(O)/C(=C\c1ccccc1Br)c1ccc(C(F)(F)F)cc1[N+](=O)[O-]`, the T/C reads like this: (dose: 75.0 mg/kg/injection, schedule: Q01DX001 (ip), vehicle: saline with Tween-80) 100 % of control; (dose: 150.0 mg/kg/injection, schedule: Q01DX001 (ip), vehicle: saline with Tween-80) 95 % of control; (dose: 300.0 mg/kg/injection, schedule: Q01DX001 (ip), vehicle: saline with Tween-80) 100 % of control.

Take `NNC(=O)C1CC2C=CCC(C2)C1` (stereo unspecified): the T/C is, setting by setting: (dose: 50.0 mg/kg/injection, schedule: Q01DX001 (ip), vehicle: saline with Tween-80) 100 % of control; (dose: 100.0 mg/kg/injection, schedule: Q01DX001 (ip), vehicle: saline with Tween-80) 91 % of control; (dose: 200.0 mg/kg/injection, schedule: Q01DX001 (ip), vehicle: saline with Tween-80) 91 % of control.

Take `Cc1cccc(C(=O)O)[n+]1[O-]`: the T/C is 95 % of control under setting [5], 90 % of control under setting [6] and 90 % of control under setting [7].

As to `CCCNCc1c2c(O)c3c(O)c(C)c4c(c3c1O)C(=O)C(C)(O/C=C/C(OC)C(C)C(OC(C)=O)C(C)C(O)C(C)C(O)C(C)/C=C/C=C(/C)C(=O)N2)O4` (stereo unspecified), the T/C is 90 % of control under setting [8] and 100 % of control under setting [5].

In the case of `C[CH2][Pb]([CH2]C)([CH2]C)[O]C(=O)COc1ccccc1`, the T/C was 118 % of control (dose: 0.75 mg/kg/injection, schedule: Q01DX009 (ip), vehicle: Klucel (hydroxypropylcellulose) (HPC)); 107 % of control (dose: 0.75 mg/kg/injection, schedule: Q04DX003 (ip), vehicle: saline with Tween-80); 117 % of control (dose: 1.5 mg/kg/injection, schedule: Q04DX003 (ip), vehicle: saline with Tween-80); 115 % of control (dose: 1.56 mg/kg/injection, schedule: Q01DX009 (ip), vehicle: saline with Tween-80); 112 % of control (dose: 3.9 mg/kg/injection, schedule: Q04DX003 (ip), vehicle: alcohol); 117 % of control (dose: 6.0 mg/kg/injection, schedule: Q01DX009 (ip), vehicle: Klucel (hydroxypropylcellulose) (HPC)). Further, the T/C was 120 % of control (dose: 6.0 mg/kg/injection, schedule: Q04DX003 (ip), vehicle: alcohol); 153 % of control and 168 % of control (dose: 6.25 mg/kg/injection, schedule: Q01DX009 (ip), vehicle: saline with Tween-80); 105 % of control (dose: 9.0 mg/kg/injection, schedule: Q04DX003 (ip), vehicle: alcohol); 107 % of control (dose: 12.0 mg/kg/injection, schedule: Q04DX003 (ip), vehicle: saline with Tween-80).

Consider `[O-]c1c[n+](-c2ccccc2)no1`, for which the T/C is 119 % of control under setting [8] and 94 % of control under setting [6].

Consider `CCOC(=O)N(C)c1ccccc1`, for which the T/C by setting is: under setting [9], 95 % of control; (dose: 25.0 mg/kg/injection, schedule: Q04DX003 (ip), vehicle: Klucel (hydroxypropylcellulose) (HPC)) 92 % of control; under setting [10], 91 % of control; under setting [11], 96 % of control; under setting [12], 87 % of control; under setting [13], 92 % of control.

As for `CN=C(NN(C)C)c1ccc(NC(=O)c2ccc(C(=O)Nc3ccc(C(=NC)NN(C)C)cc3)cc2)cc1`, the T/C is, setting by setting: (dose: 4.0 mg/kg/injection, schedule: Q01DX009 (ip), vehicle: saline with Tween-80) 100 % of control; (dose: 9.0 mg/kg/injection, schedule: Q01DX009 (ip), vehicle: saline with Tween-80) 150 % of control.

For the compound `CCOC(=O)/C(Cc1cnc2ccccc2n1)=N\O`, the T/C (dose: 100.0 mg/kg/injection, schedule: Q04DX003 (ip), vehicle: saline with Tween-80) was 95 % of control; the T/C (dose: 200.0 mg/kg/injection, schedule: Q04DX003 (ip), vehicle: saline with Tween-80) was 100 % of control; the T/C (dose: 400.0 mg/kg/injection, schedule: Q04DX003 (ip), vehicle: saline with Tween-80) is 100 % of control.

As for `O=C(Nc1ccc2ncccc2c1)Nc1ccc2ncccc2c1`, the T/C by setting is: under setting [10], 87 % of control; under setting [11], 91 % of control; under setting [12], 95 % of control; under setting [13], 95 % of control; under setting [14], 91 % of control.

Turning to `CCCCCCCCCC(=O)NC(CN1CCOCC1)C(=O)c1ccccc1` (stereo unspecified), the T/C is, setting by setting: (dose: 12.5 mg/kg/injection, schedule: Q04DX003 (ip), vehicle: saline with Tween-80) 95 % of control; (dose: 25.0 mg/kg/injection, schedule: Q04DX003 (ip), vehicle: saline with Tween-80) 98 % of control; (dose: 50.0 mg/kg/injection, schedule: Q04DX003 (ip), vehicle: saline with Tween-80) 100 % of control.

As to `Nc1cccc(OCCCCCOc2cccc(N)c2)c1`, the T/C (dose: 12.5 mg/kg/injection, schedule: Q01DX009 (ip), vehicle: Klucel (hydroxypropylcellulose) (HPC)) is 96 % of control; the T/C under setting [9] was 108 % of control; the T/C under setting [10] was 94 % of control.

As to `CC1NC(=O)C2CCCN2C(=O)C2CCCN2C(=O)C(C(C)C)NC(=O)C(Cc2ccccc2)NC(=O)C(Cc2ccccc2)NC(=O)C2CCCN2C(=O)C2CCCN2C(=O)C(Cc2ccccc2)NC(=O)C(Cc2ccccc2)NC1=O` (stereo unspecified) (cyclo(AFFPPFFVPP); configuration not given here), the T/C runs as follows: (dose: 0.5 mg/kg/injection, schedule: Q01DX009 (ip), vehicle: saline) 101 % of control; (dose: 1.0 mg/kg/injection, schedule: Q01DX009 (ip), vehicle: saline) 104 % of control; (dose: 2.0 mg/kg/injection, schedule: Q01DX009 (ip), vehicle: saline) 104 % of control.

Turning to `[O-]c1c(Cl)c(Cl)c(O[P+](c2ccccc2)(c2ccccc2)c2ccccc2)c(Cl)c1Cl`, the T/C is, setting by setting: (dose: 6.25 mg/kg/injection, schedule: Q01DX009 (ip), vehicle: saline) 116 % of control; (dose: 12.5 mg/kg/injection, schedule: Q01DX009 (ip), vehicle: saline) 122 % of control.

Regarding `CCN(c1ccccc1)c1ccc(C=O)cc1`, the T/C runs as follows: under setting [13], 94 % of control; under setting [14], 100 % of control.

With `CCCCCCC(=O)/C=C/c1ccc(Cl)cc1Cl`, the T/C was 109 % of control under setting [5], 94 % of control under setting [6] and 98 % of control under setting [7].

With `CC(C)CCCCCCCCCCCCC(=O)NCC(=O)NC1C(C)OC(Nc2ncnc3nc[nH]c23)C(O)C1O` (stereo unspecified), the T/C (dose: 432.0 micrograms/kg/injection, schedule: Q04DX003 (ip), vehicle: saline) is 110 % of control.

In the case of `COC(=O)c1cc(=O)nc(N/N=C/c2ccco2)s1`, the T/C (dose: 50.0 mg/kg/injection, schedule: Q01DX005 (ip), vehicle: saline with Tween-80) was 94 % of control; the T/C (dose: 100.0 mg/kg/injection, schedule: Q01DX005 (ip), vehicle: saline with Tween-80) is 89 % of control; the T/C (dose: 200.0 mg/kg/injection, schedule: Q01DX005 (ip), vehicle: saline with Tween-80) was 87 % of control.

On to `C=CCNc1ncnc2c1cnn2C`, for which the T/C is 95 % of control and 104 % of control (dose: 25.0 mg/kg/injection, schedule: Q01DX009 (ip), vehicle: saline); 109 % of control under setting [4]; 118 % of control under setting [1]; 104 % of control under setting [15]; 109 % of control under setting [2]; 90 % of control under setting [3].

For the compound `CC(N)c1ccccc1` (stereo unspecified) (tested in a mixture with another compound), the T/C under setting [4] is 96 % of control; the T/C under setting [15] was 104 % of control; the T/C (dose: 200.0 mg/kg/injection, schedule: Q01DX009 (ip), vehicle: saline) was 95 % of control.
